{
  "source": "patent US7138543B2",
  "about": "“Thiolalkyl benzoic acid derivatives” (Guilford Pharmaceuticals Inc., priority 2001, dated 2006)",
  "key": {"STZ-diabetic rats [1]": {"test_system": "STZ-diabetic rats", "assay": "Neuropathic pain in STZ model (Hargreaves thermal nociception)", "type": "in vivo, Sprague-Dawley rats", "settings": "10 mg/kg i.p. daily, started 45 days post-STZ", "experimental": "In vivo Assay of NAALADase Inhibitors on Neuropathic Pain in STZ Model\nMale Sprague-Dawley rats (200–225 g) were rendered diabetic by intravenous administration of streptozotocin (“STZ”, 70 mg/kg in phosphate buffered saline). Diabetic animals were divided into five groups: one group receiving Compound A (10 mg/kg or 1 mg/kg), Compound D (10 mg/kg or 1 mg/kg) or vehicle. Another group of animals (non-STZ treated) served as non-diabetic controls. Drug/vehicle treatment was started in diabetic animals 45 days post-STZ administration. STZ-induced diabetic rats were tested for sensitivity to a heat source as soon as blood glucose levels rose to 320 mg/dl or above (30 days post STZ). The rats were then acclimated to a Hargreaves apparatus and thermal nociception was monitored using an infrared heat source directed into the dorsal surface of the hindpaw, and the time taken for the animal to remove its paw noted to the nearest 0.1 seconds (see Hargreaves et al., J. Biol. Chem. (1988) 263(36):19392–7 for a description of the experimental method). The intensity of the beam source was adjusted such that the mean latency for control animals (non-STZ treated) was approximately 10 seconds. Each animal was tested 8 times and the mean difference score (between mean non-diabetic control latency and mean diabetic latency) are graphically presented in FIGS. 7A and 7B."}, "BB/W diabetic rats": {"test_system": "BB/W diabetic rats", "assay": "Progression of neuropathic pain in BB/W model (withdrawal latency)", "type": "in vivo", "settings": "10 mg/kg i.p. daily; vs diabetic vehicle-treated rats, from 4 weeks through six months of treatment, FIG. 11", "description": "In vivo Assay of NAALADase Inhibitors on Progression of Neuropathic Pain in BB/W Models\nMale BB/W rats (BRI, Mass) spontaneously develop a cell mediated autoimmune destruction of pancreatic B cells, resulting in onset of insulin-dependent (Type I) diabetes (Awata, Guberski, Endocrinology (1995) 136(12):5731–5). […] This renders them valuable for experimental trials of new compounds for future treatments of this major disorder. In the present study, Compound A and Compound D were examined for their ability to alter the progression of diabetic neuropathy. The rats received daily injection of Compound A or Compound D (10 mg/kg i.p.) or vehicle, starting at the onset of diabetes (hyperglycemia) and up to 6 months thereafter. Another group of non-diabetic rats also receiving vehicle were tested. All animals were continuously monitored for body weight, urine volume, blood sugar and glycated haemoglobin. In the first month of the study, all animals were tested for thermal nociception in a Hargreaves apparatus, weekly. After the first month this was done biweekly and then monthly. The testing consists of directing an infrared heat source onto the dorsal surface of the rat hindpaw and noting the time taken for the animal to remove its paw (see Hargreaves et al., J. Biol. Chem. (1988) 263(36):19392–7 for a description of the experimental method). […]"}, "STZ-diabetic rats [2]": {"test_system": "STZ-diabetic rats", "assay": "Diabetic neuropathy in STZ model (motor and sensory nerve conduction velocity)", "type": "in vivo", "experimental": "In vivo Assay of NAALADase Inhibitors on Diabetic Neuropathy in STZ Model\nMotor and sensory nerve conduction velocity was also measured in STZ-diabetic animals after 4, 8 and 12 weeks of treatment (see De Koning et al., supra, for a description of the experimental method). Briefly, stimulating needle electrodes were inserted close to the sciatic and tibial nerves with recording electrodes being placed subcutaneously over the distal foot muscles, in anesthetized rats."}, "[3]": {"test_system": "rats with unilateral elevation of intraocular pressure", "assay": "Experimental rat glaucoma (IOP elevation, optic nerve fiber counting)", "type": "in vivo", "settings": "8 week group", "experimental": "Protective Effect of NAALADase Inhibitors in Experimental Rat Glaucoma\nAll experiments complied with the Association for Research in Vision and Ophthalmology Statement for the Use of Animals in Ophthalmic and Vision Research. 82 male Brown Norway rats (Rattus norvegicus), each weighing approximately 250 gm, were treated using procedures approved by the Animal Care Committee of the Johns Hopkins University School of Medicine. The rats were housed with a 12 hour light/12 hour dark cycle and fed ad libitum.\nEXPERIMENTAL GLAUCOMA: Unilateral elevation of intraocular pressure (“IOP”) was produced in 56 rats by microinjection of hypertonic saline into episcleral veins, following procedures described in Morrison, J. et al., IOVS (March 1998) 39:526–531. Beginning on the day of IOP elevation, the rats were treated daily with intraperitoneal injections of either a vehicle (23 rats with 50 mM HEPES-buffered saline) or a NAALADase inhibitor (11 rats with 10 mg/kg of Compound A and 22 rats with 10 mg/kg of Compound B). 11 saline treated rats, 11 Compound A treated rats and 11 Compound B treated rats were sacrificed at 8 weeks, and the remaining rats at 12 weeks, after initial IOP elevation.\nOPTIC NERVE COUNTING: The rats were sacrificed by exsanguination under deep pentobarbital anesthesia. They were perfused through the heart with 2% paraformaldehyde/2% glutaraldehyde in 0.1 M phosphate buffer, pH 7.2, and the eyes with attached optic nerves were removed. A cross-section of the optic nerve from both experimental (glaucoma or transection) and control eyes was removed 1.5 mm posterior to the globe, 1 mm in thickness, and post-fixed in 2% osmium tetroxide in buffer. These were processed into epoxy resin, sectioned at 1 micron and stained with toluidine blue.\nThe area of the optic nerve cross-section was measured by outlining its outer border at 10× magnification on an image analysis system (Universal Imaging Corp., Westchester, Pa.) with Synsys digital camera and Metamorph software. Three area measurements were taken and the mean value was determined. To measure the density and fiber diameter distributions, images were captured with a 100× phase contrast objective from 10 different areas of each nerve. These were edited to eliminate non-neural objects and the size of each axon internal to the myelin sheath (its minimum diameter) and the density of axons/square mm were calculated for each image and nerve. The mean density was multiplied by total nerve area to yield fiber number for each nerve. The total fiber number in glaucoma or transection nerves was compared to the normal, fellow eye of each rat to yield a percent loss value. The number of axons counted among the 10 images was an approximately 20% sample of the 80–90,000 axons in normal rat nerves. The person measuring axon number was masked to the protocol conducted on the nerves."}},
  "data": [
    {"smiles": "O=C(O)CCC(CP(=O)(O)Cc1c(F)c(F)c(F)c(F)c1F)C(=O)O", "note": "(stereo not shown) [Compound A]", "values": [
      {"measurement": "hyperalgesic response (withdrawal latency difference score)", "setting": "STZ-diabetic rats [1]", "value": "completely reversed"},
      {"measurement": "withdrawal latency", "setting": "BB/W diabetic rats", "value": "longer withdrawal latencies"},
      {"measurement": "motor and sensory nerve conduction velocities", "setting": "STZ-diabetic rats [2]; 10 mg/kg daily for 4, 8 and 12 weeks, FIGS. 9A and 9B", "value": "tended to improve (increase) both motor and sensory nerve conduction velocities"},
      {"measurement": "treatment time at which significant improvement of motor nerve conduction velocity was observed", "setting": "STZ-diabetic rats [2]; 10 mg/kg daily, FIG. 9A", "value": 12, "unit": "weeks"},
      {"measurement": "treatment time at which significant improvement of sensory nerve conduction velocity was observed", "setting": "STZ-diabetic rats [2]; 10 mg/kg daily, FIG. 9B", "value": 8, "unit": "weeks"},
      {"measurement": "FIBER NUMBER", "setting": "[3]; 10 mg/kg daily intraperitoneal", "value": "79156 ± 2436"},
      {"measurement": "PERCENT DIFFERENCE in fiber number between glaucoma and normal eye", "setting": "[3]; positive value indicates fewer fibers in the glaucoma eye", "value": "−1.82 ± 2.92", "unit": "%"}
    ]}
  ]
}
